Test results published in patent US20210308101A1, “METHODS OF TREATING FIBROMYALGIA” (Aptinyx Inc., priority 2019, published 2021).

Legend:
[1] = system: subjects with fibromyalgia; assay: Revised Fibromyalgia Impact Questionnaire (FIQR); assay type: in vivo, human
From the text: As used herein, “FIQR” is Revised Fibromyalgia Impact Questionnaire. The FIQR is an updated version of the Fibromyalgia Impact Questionnaire which is an assessment of the physical functioning, work status, depression, anxiety, morning tiredness, pain, stiffness, fatigue and wellbeing in fibromyalgia subjects measured over the period of 1 week. The FIQR differs from the FIQ in that it includes questions on memory, tenderness, balance, and environmental sensitivity as well as modified function questions. All 21 FIQR questions are based on an 11-point numerical rating scale/Likert scale ranging from 0 to 10. Lower scores represent a better quality of life. The FIQR is made of the 3 following domains: • Function Domain Score • 9 Questions with Scores Ranging from 0 (No Difficulty) to 10 (Very Difficult) • Sum of those 9 Questions make up the Function Domain Score Ranging from 0 to 90 • Missing Data Imputation Factor: If at least 5 questions were answered, the Function Domain Score was multiplied by 9/(number of questions answered) and rounded off to the nearest whole number. Otherwise, the score was set to missing. • Overall Impact Domain Score • 2 Questions with Scores Ranging from 0 (Never) to 10 (Always) • Sum of those 2 Questions make up the Overall Impact Domain Score Ranging from 0 to 20 • Missing Data Imputation Factor: If 1 question was missing, the Overall Impact Domain Score was multiplied by 2. Otherwise, the score was set to missing. • Symptoms Domain Score • 10 Questions with Scores Ranging from 0 to 10 with Different Categorical Reponses Sum of those 10 Questions make up the Symptoms Domain Score Ranging from 0 to 100 Missing Data Imputation Factor: If at least 5 questions were answered, the Function Domain Score was multiplied by 10/(number of questions answered) and rounded off to the nearest whole number. Otherwise, the score was set to missing.
If all 3 domain scores could be calculated, the Total FIQR Score ranged from 0 to 100 and was calculated based on the normalization domain scores: (Function Domain Score/3)+Overall Impact Domain Score+(Symptoms Domain Score/2). Otherwise, the Total FIQR Score was set to missing. The Function and Symptoms domain scores collected on the CRF applied the normalization factors stated above (Function Domain Score/3 and Symptoms Domain Score/2) in order to calculate the Total FIQR Score on the CRF. As a result, the Function and Symptoms domain scores were derived by the definition stated above in the SAP as opposed to using the collected values on the CRF. The FIQR assessment was collected and analyzed at visits Screening, Day 1, Week 2, Week 4, Week 6, and Follow-up (Week 7). The observed total and domain scores, changes from baseline, and changes from treatment periods were summarized using descriptive statistics. Additionally, the treatment group comparisons were analyzed using the paired ttest and nonparametric Wilcoxon signed-rank test. All FIQR data collected and the calculated total and domain scores at each visit were presented in a subject listing.

[2] = system: subjects with fibromyalgia; assay: Quantitative Sensory Testing, all outcomes; assay type: in vivo, human
From the text: Other efficacy assessments, as used herein, include “Multi-Modal Automated Sensory Testing” (MAST) Pressure Pain Sensitivity, “Cuff Algometry,” and “Visual Stimulation Task.”
The multi-modal automated sensory testing (MAST) system was used to measure localized pressure sensitivity at an asymptomatic, neutral body site, the thumbnail. The MAST system is a nonsignificant-risk investigational device that applies a computer-controlled mechanical stimulation at precisely controlled intensity levels and durations. The validity in the measurement of centrally-mediated pain sensitivity has been discussed extensively. The MAST system delivered an ascending series of computer-controlled, 5-second pressures at 20-second intervals (with 20% jitter) to the subject's thumbnail bed, beginning at 0.25 to 0.5 kg/cm^2 and increasing in steps of 0.25 to 0.50 kg/cm^2. Pain intensity was rated after each pressure on a 0 to 100 NRS. Testing was terminated when the first of 3 possible stop conditions were met: 1) subject reached her personal pain tolerance and requested to stop the test, 2) subject reported a pain intensity rating of >80, or 3) the maximum pressure of 10 kg/cm^2 was delivered. A regression model was used fit the stimulus-response data obtained from this procedure and interpolate Pain50, defined as the pressure intensity that evokes a moderate level of suprathreshold pressure pain (i.e., 50/100). Additional derived variables included: 1) Pressure pain threshold, defined as the first pressure in a series of at least 2 consecutive pressures that elicited a NRS pain rating >0; 2) slope of the stimulus-response function as a measure of the rate of pain increase; and 3) pressure pain tolerance, defined as the last pressure recorded in the stimulus response profile. […]
Localized pressure pain sensitivity was also measured bilaterally at 3 additional body regions: trapezius, wrist, and patella. […] Sensitivity was measured using a digital algometer with a 1-cm^2 flat rubber probe. […]
Large volume, deep tissue pressure sensitivity was assessed by cuff algometry. […]

[3] = Week 2 (placebo) to Week 4 (NYX-2925 20 mg)
[4] = Week 2 (placebo) to Week 6 (NYX-2925 200 mg)

## CC(C)C(=O)N1CCC[C@]12CN([C@H](C(N)=O)[C@@H](C)O)C2=O [NYX-2925, (2S, 3R)-3-hydroxy-2-((R)-5-isobutyryl-1-oxo-2,5-diazaspiro[3.4]octan-2-yl)butanamide]
[1]; NYX-2925 20 mg
  total FIQR score, change from baseline: reductions from baseline
[1]; [3]
  FIQR Symptoms Domain score, mean change: −2.1
  FIQR Total score, mean change: −0.5
[1]; [4]
  FIQR Function Domain score, mean change: −3.7
  FIQR Overall Impact Domain score, mean change: −2.0
[1]; Week 2 (placebo) to Week 6 (NYX-2925 200 mg), p=0.0135
  FIQR Total score, mean change: −6.3
[1]; Week 2 (placebo) to Week 6 (NYX-2925 200 mg), p=0.0207
  FIQR Symptoms Domain score, mean change: −6.2
[1]; week six, after four weeks of NYX-2925, scale 0 to 100, n=21
  Total FIQR score, reduction from baseline: 9.6 point
[2]; NYX-2925 20 mg
  effects on QST relative to placebo: no significant or marginal effects
[2]; NYX-2925 20 mg versus NYX-2925 200 mg
  differences on QST between doses: no significant or marginal differences
[2]; NYX-2925 200 mg
  effects on QST outcomes relative to placebo, other than right trapezius threshold: no additional significant or marginal effects
